The target in one assay is hNAMPT protein (Homo sapiens (Human), UniProt P43490). Kind of assay: NAMPT enzyme assay (TR-FRET/HTRF, BodiPY ligand, anti 6His-Tb). It is filed as binding. The settings on record: for IC50: NAMPT IC50 range class, read-out: IC50; for inhibition at 1 µM: read-out: Percent Inhibition. The procedure, abridged:
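TR-FRET binding assay in which His-tagged human NAMPT with anti-6His-Tb is displaced by compound from a BodiPY ligand, incubated 1 h at rt in the dark. Excitation was at 320 nm, with the 520/486 nm emission ratio read. IC50 was fitted from inhibition relative to DMSO controls.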
A general note: In TR-FRET formats the signal depends on donor and acceptor labels being close together.

Another assay has as its system PC3 cells. The assay can be described thus: PC3 growth inhibition (Cell-titer glo, 72 hours). The assay is classed as cell-based. The settings on record: Homo sapiens, PC-3, PC3 cells, 72 hours, Cell-titer glo, read-out: Percent Inhibition (PC3 growth inhibition); for inhibition at 1.667 µM: compound concentration 1.667 μM; for inhibition at 1 µM: compound concentration 1 μM; for inhibition at 1.852 µM: compound concentration 1.852 μM. The procedure, abridged:
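PC3 cells in RPMI1640 seeded overnight at 37 °C, 5% CO2, then exposed to compound diluted in AIM serum-free medium for 72 h. Viability by CellTiter-Glo luminescence vs DMSO controls; single-concentration % remaining viability (1 μM or 1.667 μM), or GI50/LD50 from curves.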

Each structure is given as a SMILES string. Read-outs that look alike come from different tables or passages of the source.

Chain of hNAMPT protein (P43490 whole entry): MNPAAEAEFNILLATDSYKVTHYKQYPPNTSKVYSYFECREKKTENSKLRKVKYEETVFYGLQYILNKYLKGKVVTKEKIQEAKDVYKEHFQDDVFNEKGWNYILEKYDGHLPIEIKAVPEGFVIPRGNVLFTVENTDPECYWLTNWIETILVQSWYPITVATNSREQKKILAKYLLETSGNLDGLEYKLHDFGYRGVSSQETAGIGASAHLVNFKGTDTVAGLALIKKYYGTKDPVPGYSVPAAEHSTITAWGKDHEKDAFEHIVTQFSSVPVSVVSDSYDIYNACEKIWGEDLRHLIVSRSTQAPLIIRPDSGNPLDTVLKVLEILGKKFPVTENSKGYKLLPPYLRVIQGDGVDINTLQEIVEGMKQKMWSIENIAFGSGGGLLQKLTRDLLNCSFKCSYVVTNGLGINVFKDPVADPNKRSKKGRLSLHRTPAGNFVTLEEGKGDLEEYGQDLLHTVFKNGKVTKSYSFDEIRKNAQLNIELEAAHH

The term IC50 denotes the concentration at which inhibition is half-maximal. In general, inhibition refers to the drop in the measured response relative to a control, in per cent. Take `CN(C)c1nc2ccc(C(=O)NCCc3cncn3C)cc2nc1-c1ccc(F)cc1` [Compound I-58, 2-(dimethylamino)-3-(4-fluorophenyl)-N-[2-(1-methyl-1H-imidazol-5-yl)ethyl]quinoxaline-6-carboxamide]: the IC50 at hNAMPT protein is 500 to 1000 nM. Also, on hNAMPT protein (compound concentration 1 μM), the inhibition at 1 µM is 64%. Further, in the assay with PC3 cells, the inhibition at 1.667 µM came out at 50%.
Turning to `COC1CN(c2nc3ccc(C(=O)NCCCn4ccnc4)cc3nc2-c2ccccc2)C1` [Compound I-59, N-[3-(1H-imidazol-1-yl)propyl]-2-(3-methoxyazetidin-1-yl)-3-phenylquinoxaline-6-carboxamide], the IC50 at hNAMPT protein lay within 1000 to 2000 nM. Moreover, the inhibition at 1 µM is 49% at hNAMPT protein (compound concentration 1 μM) and -6% in the assay with PC3 cells.
Turning to `O=C(NCCCn1ccnc1)c1ccc2nc(-c3ccsc3)c(-c3ccccc3)nc2c1` [Compound I-60, N-[3-(1H-imidazol-1-yl)propyl]-3-phenyl-2-(3-thienyl)quinoxaline-6-carboxamide], the IC50 on hNAMPT protein was 500 to 1000 nM. For the same compound, the figures for the inhibition at 1 µM on hNAMPT protein (compound concentration 1 μM) and in the assay with PC3 cells were 51% and -4%, respectively.
On to `O=C(NCCCn1ccnc1)c1ccc2nc(-c3cccc(OC(F)(F)F)c3)c(-c3ccccc3)nc2c1` [Compound I-61, N-[3-(1H-imidazol-1-yl)propyl]-3-phenyl-2-[3-(trifluoromethoxy)phenyl]quinoxaline-6-carboxamide], for which the IC50 at hNAMPT protein was 100 to 500 nM. For the same compound, the figures for the inhibition at 1 µM on hNAMPT protein (compound concentration 1 μM) and with PC3 cells were 75% and -7%, respectively.
Taken in the same sequence, the figures for `O=C(NCCCn1ccnc1)c1ccc2nc(NCc3ccccc3)c(-c3ccccc3)nc2c1` [Compound I-62, 2-(benzylamino)-N-[3-(1H-imidazol-1-yl)propyl]-3-phenylquinoxaline-6-carboxamide] were 2000 to 10000 nM, 24% and -4%.
Take `CC(C)(C)OC(=O)NCc1ccc(-c2nc3cc(C(=O)NCCCn4ccnc4)ccc3nc2-c2ccccc2)cc1` [Compound I-63, tert-Butyl [4-(7-{[3-(1H-imidazol-1-yl)propyl]carbamoyl}-3-phenylquinoxalin-2-yl)benzyl]carbamate]: at hNAMPT protein, the IC50 lay within 2000 to 10000 nM. The inhibition at 1 µM on hNAMPT protein was 17%; in the assay on PC3 cells, 25%.
In the case of `O=C(NCc1ccc2nccn2c1)c1ccc2nc(N3CCC(N4CCOCC4)CC3)c(-c3ccc(F)cc3)nc2c1` [Compound I-64, 3-(4-fluorophenyl)-N-(imidazo[1,2-a]pyridin-6-ylmethyl)-2-[4-(morpholin-4-yl)piperidin-1-yl]quinoxaline-6-carboxamide], the IC50 on hNAMPT protein was less than 100 nM. Also, the inhibition at 1 µM on hNAMPT protein (compound concentration 1 μM) was 98%. Further, the inhibition at 1.852 µM in the assay on PC3 cells stood at 2%.
In the case of `O=C(NCCOc1cccnc1)c1ccc2nc(-c3ccc(F)cc3)c(-c3ccc(F)cc3)nc2c1` [Compound I-65, 2,3-bis(4-fluorophenyl)-N-[2-(pyridin-3-yloxy)ethyl]quinoxaline-6-carboxamide], at hNAMPT protein, the IC50 was less than 100 nM. On hNAMPT protein (compound concentration 1 μM), the inhibition at 1 µM is 95%. In addition, the inhibition at 1.667 µM in the assay on PC3 cells was determined as 2%.
With `CC(C)(C)OC(=O)N1CCN(C2CCN(c3nc4ccc(C(=O)NCCCn5ccnc5)cc4nc3-c3ccccc3)CC2)CC1` [Compound I-66, tert-butyl 4-[1-(6-{[3-(1H-imidazol-1-yl)propyl]carbamoyl}-3-phenylquinoxalin-2-yl)piperidin-4-yl]piperazine-1-carboxylate], at hNAMPT protein, the IC50 was less than 100 nM. Further, the inhibition at 1 µM at hNAMPT protein (compound concentration 1 μM) is 102%; in the assay on PC3 cells, -1%.
As to `COc1cccc(-c2nc3cc(C(=O)NCCc4cccnc4)ccc3nc2N2CCC(O)CC2)c1` [Compound I-67, 2-(4-hydroxypiperidin-1-yl)-3-(3-methoxyphenyl)-N-[2-(pyridin-3-yl)ethyl]quinoxaline-6-carboxamide], the IC50 at hNAMPT protein is less than 100 nM. At hNAMPT protein (compound concentration 1 μM), the inhibition at 1 µM was 96%. Moreover, in the assay with PC3 cells, the inhibition at 1.667 µM came to 2%.
For the compound `Cn1cc2c(n1)OCCN(C(=O)c1ccc3nc(-c4ccc(F)cc4)c(-c4ccc(F)cc4)nc3c1)C2` [Compound I-68, [2,3-bis(4-fluorophenyl)quinoxalin-6-yl](2-methyl-2,4,6,7-tetrahydro-5H-pyrazolo[4,3-f][1,4]oxazepin-5-yl)methanone], the IC50 at hNAMPT protein is 2000 to 10000 nM. Further, the inhibition at 1 µM at hNAMPT protein (compound concentration 1 μM) came to 16%; in the assay with PC3 cells, 101%.
In the same order, the values of `O=C(NCCCn1ccnc1)c1ccc2nc(-c3ccccc3)c(-c3ccc4nccn4c3)nc2c1` [Compound I-69, N-[3-(1H-imidazol-1-yl)propyl]-3-(imidazo[1,2-a]pyridin-6-yl)-2-phenylquinoxaline-6-carboxamide] are 100 to 500 nM, 75% and 0%.
As to `COc1cccc(-c2nc3cc(C(=O)NCCCc4cccnc4)ccc3nc2N2CCC(N3CCOCC3)CC2)c1` [Compound I-70, 3-(3-methoxyphenyl)-2-[4-(morpholin-4-yl)piperidin-1-yl]-N-[3-(pyridin-3-yl)propyl]quinoxaline-6-carboxamide], the IC50 on hNAMPT protein is less than 100 nM. Besides, on hNAMPT protein (compound concentration 1 μM), the inhibition at 1 µM is greater than 99%. The inhibition at 1.667 µM with PC3 cells was found to be 2%.
Take `O=C(CCCn1ccnc1)Nc1ccc2nc(-c3ccc(F)cc3)c(-c3ccc(F)cc3)nc2c1` [Compound I-72, N-[2,3-Bis(4-fluorophenyl)quinoxalin-6-yl]-4-(1H-imidazol-1-yl)butanamide]: the IC50 at hNAMPT protein was in the range of 1000 to 2000 nM. Further, the inhibition at 1 µM at hNAMPT protein (compound concentration 1 μM) worked out at 46%; in the assay with PC3 cells, 2%.
Consider `COc1cccc(-c2nc3cc(C(=O)NCCc4cccnc4)ccc3nc2Cl)c1` [Compound I-73, 2-Chloro-3-(3-methoxyphenyl)-N-[2-(pyridin-3-yl)ethyl]quinoxaline-6-carboxamide], for which the IC50 on hNAMPT protein is 1000 to 2000 nM. Moreover, the inhibition at 1 µM on hNAMPT protein (compound concentration 1 μM) was 13%. Besides, the inhibition at 1.852 µM in the assay on PC3 cells is greater than 99%.
Take `CC(C)(C)OC(=O)NC1CCN(C2CCN(c3nc4ccc(C(=O)NCCCn5ccnc5)cc4nc3-c3ccccc3)CC2)CC1` [Compound I-74, tert-Butyl [1′-(6-{[3-(1H-imidazol-1-yl)propyl]carbamoyl}-3-phenylquinoxalin-2-yl)-1,4′-bipiperidin-4-yl]carbamate]: the IC50 on hNAMPT protein was less than 100 nM. The results for the inhibition at 1 µM at hNAMPT protein (compound concentration 1 μM) and in the assay with PC3 cells were 100% and -2%, respectively.
For the compound `O=C(c1ccc2nc(-c3ccc(F)cc3)c(-c3ccc(F)cc3)nc2c1)N1CCc2[nH]ccc2C1` [Compound I-75, [2,3-bis(4-fluorophenyl)quinoxalin-6-yl](1,4,6,7-tetrahydro-5H-pyrrolo[3,2-c]pyridin-5-yl)methanone], the IC50 at hNAMPT protein fell in the range of 2000 to 10000 nM. Besides, the values for the inhibition at 1 µM on hNAMPT protein (compound concentration 1 μM) and in the assay on PC3 cells were 16% and 96%, respectively.
In the same order, the values of `O=C(NCc1ccccn1)c1ccc2nc(-c3ccccc3)c(-c3ccccc3)nc2c1` [Compound I-76, 2,3-diphenyl-N-(pyridin-2-ylmethyl)quinoxaline-6-carboxamide] are 2000 to 10000 nM, 29% and 92%.
Regarding `O=C(NCCCc1nccs1)c1ccc2nc(N3CCC(O)CC3)c(-c3ccc(F)cc3)nc2c1` [Compound I-77, 3-(4-Fluorophenyl)-2-(4-hydroxypiperidin-1-yl)-N-[3-(1,3-thiazol-2-yl)propyl]quinoxaline-6-carboxamide], at hNAMPT protein, the IC50 fell in the range of 100 to 500 nM. Also, the inhibition at 1 µM on hNAMPT protein (compound concentration 1 μM) stood at 86%. The inhibition at 1.667 µM in the assay with PC3 cells is greater than 99%.
`COC1CCN(c2nc3ccc(C(=O)NCCCc4ncc[nH]4)cc3nc2-c2ccc(F)cc2)CC1` [Compound I-78, 3-(4-fluorophenyl)-N-[3-(1H-imidazol-2-yl)propyl]-2-(4-methoxypiperidin-1-yl)quinoxaline-6-carboxamide]: the IC50 at hNAMPT protein was less than 100 nM. For the same compound, the inhibition at 1 µM at hNAMPT protein (compound concentration 1 μM) is greater than 99%. In the assay on PC3 cells, the inhibition at 1.667 µM worked out at 2%.
With `O=C(NCCCn1ccnc1)c1ccc2nc(-c3ccccc3)c(-c3ccc(Cl)cc3)nc2c1` [Compound I-79, 3-(4-chlorophenyl)-N-[3-(1H-imidazol-1-yl)propyl]-2-phenylquinoxaline-6-carboxamide], the IC50 on hNAMPT protein was less than 100 nM. The inhibition at 1 µM at hNAMPT protein (compound concentration 1 μM) was 93%; with PC3 cells, -8%.
With `O=C(NCCCn1ccnc1)c1ccc2nc(Oc3ccccc3)c(-c3ccccc3)nc2c1` [Compound I-80, N-[3-(1H-Imidazol-1-yl)propyl]-2-phenoxy-3-phenylquinoxaline-6-carboxamide], at hNAMPT protein, the IC50 was in the range of 500 to 1000 nM and the inhibition at 1 µM was 65%. Besides, in the assay with PC3 cells, the inhibition at 1 µM was 1%.
With `CN1CCN(c2nc3ccc(C(=O)NCCCn4ccnc4)cc3nc2-c2ccccc2)CC1=O` [Compound I-81, N-[3-(1H-imidazol-1-yl)propyl]-2-(4-methyl-3-oxopiperazin-1-yl)-3-phenylquinoxaline-6-carboxamide], on hNAMPT protein, the IC50 lay in the range of 500 to 1000 nM. The inhibition at 1 µM on hNAMPT protein (compound concentration 1 μM) was 63%; in the assay with PC3 cells it was -7%.
For the compound `Cn1cncc1CCNC(=O)c1ccc2nc(N3CCC(N4CCOCC4)CC3)c(-c3ccc(F)cc3)nc2c1` [Compound I-82, 3-(4-Fluorophenyl)-N-[2-(1-methyl-1H-imidazol-5-yl)ethyl]-2-[4-(morpholin-4-yl)piperidin-1-yl]quinoxaline-6-carboxamide], the IC50 at hNAMPT protein was less than 100 nM. For the same compound, at hNAMPT protein (compound concentration 1 μM), the inhibition at 1 µM came out at 98%. The inhibition at 1.667 µM with PC3 cells was 2%.

Source of the values: patent US10144742B2 (Millennium Pharmaceuticals, Inc., priority 2014, dated 2018).
